# Test results from patent publication US8852876B2, “Label free biosensors and cells” (Corning Incorporated, priority 2008, dated 2014).
# Key:
# CHO cells [1] = experiment: Saponin-permeabilized cell assay for cytoskeleton modulators (LID biosensor); format: cell-based, Chinese hamster; conditions: saponin 67 ug/ml
# Source text: The method involves the use of pore-forming reagents (e.g, saponin) to generate permeabilized cells which permit soluble proteins to diffuse away. It is known that treatment of the cells with many pore-forming reagents leads to permeabilized cells. Since intracellular macromolecules are highly organized within the cytoplasm of mammalian cells through direct binding to cytoskeletal elements, the permeabilized cells still retain most of the biological functions of living cells by sequestration of intracellular machinery through the cytoskeleton super-assembled structure, although the saponin-treated cells undergo the loss of some portions of biomacromolecules. However, upon disruption of microfilaments there is a dramatic reduction of protein synthesis accompanied by release of these translation components from the cells. Also, many other sequestered biomacromolecules are released from these permeabilized cells after disrupting the cytoskeleton structure. These further released materials from the permeabilized cells result in the loss in mass; thus resulting in the changes in effective refractive index of the cell layer on the surface of a LID biosensor which can be detected by LID biosensors. Thus, the changes obtained using optical biosensors can be used as an indicator of modulators that interfere with the cytoskeleton structure. In one embodiment, the present methods can be used to screen modulators that interfere with the cytoskeleton structure using the method 2500 shown in FIG. 25. In accordance with method 2500 one can monitor the mass redistribution due to pore formation of cell surface membranes induced by pore-forming reagents such as saponin in living cells 1008 by: (a) providing an optical LID biosensors 1004 (step 2502); (b) placing cells 1008 in a cell medium onto the said sensor 1004 (step 2504); (c) Optionally applying a buffer solution (step 2506); (d) applying a solution containing a compound into the cell mediums located on the top surfaces 1010 of covered optical LID biosensors 1004 (step 2508); applying a solution containing a pore-forming reagent (step 2510); and (e) interrogating the covered optical LID biosensors 1010 to monitor the time dependent optical responses which indicate mass redistributions within the permeabilized cells 1008 (step 2512). A Pore-forming reagent is a chemical or biological compound or composition that can result in the formation of pores in cell surface membranes when the cells are exposed to the reagent.
# The pore-forming regents include detergents such as saponin and filipin, or toxin such as digitonin or streptolysin O. It is well known that treatment of the cells with these reagents can result in the pore formation in cell surface membrane; the resulted permeabilized cells can release a certain amount of intracellular material, mainly soluble proteins. However, there are a great number of bio-materials that still stay with these permeabilized cells due to the sequestration by directly binding or association with the cytoskeleton structure. As a matter of fact, these permeabilized cells retain many of the biological functions of living cells such as protein synthesis.
# FIG. 50 presents the dose-dependent responses of CHO cells adherent on the surface of a LID sensor in response to saponin as a function of time. After the addition of saponin at different concentrations, a different response is evident. At low concentration, there is almost no response. […]
# [2] = tested on: EGF-induced response of quiescent A431 cells; experiment: Effect of compound pretreatment on EGF-induced DMR response; format: cell-based, human
# Procedure, shortened: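 A431 cells were made quiescent by ≥16 h culture in no or ~0.1% FBS medium. After two HBSS/20 mM HEPES pH 7.4 buffer additions ≥15 min apart, compound was added and then stimulus. Real-time dynamic mass redistribution was tracked by resonant waveguide biosensor with angular interrogation.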
# CHO cells [3] = experiment: GPCR agonist-induced mass redistribution (optical LID); format: cell-based, Chinese hamster
# Source text: These translocations can be located on a surface of an optical LID biosensor as disclosed herein. The particular data shown in FIGS. 52-60 was obtained using an optical waveguide grating sensor system and LID microplates (Nb2O5 plates), manufactured by Corning Incorporated. […] It is known that CHO cells 1008 endogenously express beta adrenergic receptors, alpha2-adrenergic receptors, P2Y receptors, as well as beta-arrestin and GRKs. It is also known that muscarinic receptors are endogenously expressed at very low level in the CHO cells 1008. In this experiment, approximately ˜5×10^4 CHO cells 1008 were placed within each well of a microplate that contained an array of optical LID biosensors 1004. The CHO cells 1008 were then cultured in 150 μl serum medium for 24 hours to ensure that the CHO cells 1008 became adherent to the substrate surface 1010. […] Since muscarinic receptors are endogenously expressed at very low level in CHO cells, oxotremorine M, agonist for muscarinic receptors, served as a control. Each of these agonists was directly applied to a different one of the wells which contained the serum medium. The optical responses were then collected by the optical LID system.
# [4] = biological target: T1, rat muscarinic receptor subtype 1 (Rattus norvegicus, UniProt P08482); experiment: GPCR agonist-induced mass redistribution in M1 CHO cells (optical LID); format: cell-based
# T1 construct: expressed in transfected cells; host or cells: CHO (M1 CHO)
# T1 sequence (P08482 1-460): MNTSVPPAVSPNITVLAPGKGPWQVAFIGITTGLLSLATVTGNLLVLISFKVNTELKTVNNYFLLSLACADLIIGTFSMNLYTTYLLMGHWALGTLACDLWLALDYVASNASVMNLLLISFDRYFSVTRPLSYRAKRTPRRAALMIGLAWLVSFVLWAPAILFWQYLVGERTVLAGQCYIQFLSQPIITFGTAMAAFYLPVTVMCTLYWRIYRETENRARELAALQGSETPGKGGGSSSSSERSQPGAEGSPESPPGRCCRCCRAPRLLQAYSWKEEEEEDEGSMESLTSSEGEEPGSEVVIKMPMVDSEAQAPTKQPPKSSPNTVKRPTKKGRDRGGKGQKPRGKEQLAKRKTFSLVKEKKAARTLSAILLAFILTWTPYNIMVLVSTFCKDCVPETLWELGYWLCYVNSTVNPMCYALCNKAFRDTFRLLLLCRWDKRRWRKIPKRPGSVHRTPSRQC
# [5] = tested on: protease activated receptors PAR1 and PAR2; experiment: Fluo-3 Ca2+ mobilization assay with PAR agonists; format: cell-based, human
# Procedure: A431 at passage 3 to 5 were grown in Costar™ 96 well clear cell culture microplates until ˜95% confluency, washed twice and starved overnight with the DMEM only, washed with 1×HBSS (1× regular Hank's balanced salt solution, 20 mM HEPES buffer, pH 7.0) in the presence of 2.5 mM probenicid, and labeled in the same buffer containing 4 μM Fluo-3 for 1 hour at room temperature. The cells were then washed twice with buffer, maintained with 100 μl 1×HBSS containing 2.5 mM probenicid. The assay was initiated by transferring 50 μl PAR agonist solution to the cell plate, and calcium signal was recorded over 6 minutes with a 6 sec interval using HTS7000 BioAssay Reader (PerkinElmer Life Science, Boston, Mass.). The assays were carried out at room temperature in order to allow direct comparison with optical sensing data.
# [6] = biological target: T2, protease activated receptors PAR1 and PAR2 (Homo sapiens, UniProt P55085); format: cell-based
# T2 construct: A431 cells which endogenously express PAR1 and PAR2; endogenous in cells; host or cells: A431
# T2 sequence (P55085 26-397): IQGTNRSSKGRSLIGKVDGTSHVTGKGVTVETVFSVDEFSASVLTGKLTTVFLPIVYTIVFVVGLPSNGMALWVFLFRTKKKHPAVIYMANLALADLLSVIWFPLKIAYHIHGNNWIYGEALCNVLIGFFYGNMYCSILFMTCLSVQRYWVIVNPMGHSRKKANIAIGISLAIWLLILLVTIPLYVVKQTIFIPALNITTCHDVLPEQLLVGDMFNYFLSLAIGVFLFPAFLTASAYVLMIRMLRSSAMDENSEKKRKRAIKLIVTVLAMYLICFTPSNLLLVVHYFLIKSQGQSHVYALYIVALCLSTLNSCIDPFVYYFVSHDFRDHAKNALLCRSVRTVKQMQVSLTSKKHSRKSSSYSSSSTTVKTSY
# Procedure: (§1) Human epidermoid carcinoma A431 cells (American Type Cell Culture) were grown in Dulbecco's modified Eagle's medium (DMEM) supplemented with 10% fetal bovine serum (FBS), 4.5 g/liter glucose, 2 mM glutamine, and antibiotics. ˜3-7.5×10^4 cells at passage 3 to 5 suspended in 200 μl the DMEM medium containing 10% FBS were placed in each well of a 96 well microplate, and were cultured at 37° C. under air/5% CO2 until ˜95% confluency was reached (˜2-4 days).
# (§2) The compound or PAR agonist solutions were made in 1×HBSS in order to match the refractive index between the cell medium and compound solution, thus minimizing the unwanted effect of bulk index change due to the introduction of compound solution which can temporarily overwhelms any DMR signal as it occurs.
# [7] = tested on: protease activated receptors PAR1 and PAR2; format: cell-based, human; conditions: interval about 1 hour
# Procedure: as §1, §2
# [8] = tested on: endogenous GPCRs in A431 cells; experiment: DMR optical biosensor profiling of GPCR agonists; format: cell-based, human; conditions: quiescent A431; first class = Gq-type, second = Gs-type, third = Gi-type, fourth = no significant DMR
# Procedure: Human epidermoid carcinoma A431 cells (American Type Cell Culture) were grown in Dulbecco's modified Eagle's medium (DMEM) supplemented with 10% fetal bovine serum (FBS), 4.5 g/liter glucose, 2 mM glutamine, and antibiotics. ˜3-7.5×10^4 cells at passage 3 to 5 suspended in 200 μl the DMEM medium containing 10% FBS were placed in each well of a 96 well microplate. Similarly ˜1-2×10^4 cells in 50 μl the growth medium were placed in each well of a 384 well microplate. After cell seeding, the cells were cultured at 37° C. under air/5% CO2 until ˜95% confluency was reached (˜2-4 days).
# A Corning® Epic™ angular interrogation system with transverse magnetic or p-polarized TM0 mode was used for all studies. Several extra actions were taken to minimize the unwanted effects. First, to minimize the bulk index changes when a compound solution is introduced, 1×HBSS buffer without any probenecid was used to dilute all the compounds, whereas the DMEM buffer only was used to starve the cells. Secondly, to facilitate the cell responses as well as to rapidly reach a steady state when the sensor plates having cells were placed in the system at room temperature, the cells were pre-starved with the DMEM buffer without any FBS for a prolonged period of time (typically 20±2 hours), and the quiescent cells were directly used for assays without any wash.
# For kinetics measurements, the cultured cells (˜95% confluency) were starved for about 20 hours with DMEM alone at 37° C. under air/5% CO2. Afterwards, the sensor microplate containing cells was placed into the optical system, and the cell responses were recorded before and after addition of a solution at room temperature. […] All studies were carried out at room temperature with the lid of the microplate on except for a short period of time (˜seconds) when the solution was introduced, in order to minimize the effect of temperature fluctuation and evaporative cooling. The unit of the responses indicated herein was a change in pixel of the central position of the resonant band of each sensor as imaged by a CCD camera; 1 unit equals to ˜5.82×10^−4 refractive index changes, based on an experimental normalization protocol, which uses the concentration-dependent responses of both glycerol and dimethyl sulfoxide.
# The panel of agonists were used individually to stimulate quiescent A431 cells. The dose-dependent and kinetic responses were recorded and analyzed. In a typical kinetic measurement, the angular shift of resonant lights of each sensor induced by an agonist is monitored in real time and plotted as a function of time. An increased signal (P-DMR) means an increase in the amount of bio-molecules within the sensing volume (˜120 nm); conversely, a decreased signal (N-DMR) means a decrease in the amount of bio-molecules within the sensing volume. The sensing volume, also known as penetration depth, is an intrinsic property of the coupled light within the waveguide film, which creates an evanescent wave extending into the cell layer and the medium.
# quiescent A431 cells = experiment: GPCR agonist-induced DMR and EGFR transactivation; format: cell-based, human; conditions: for GPCR agonist-induced DMR response curve: bradykinin 100 nM, carbachol 10 μM, clonidine 1 μM
# Procedure: Both A431 and CHO-K1 cells were grown in Dulbecco's modified Eagle's medium (DMEM) supplemented with 10% fetal calf serum, 100 μg/ml penicillin, and 100 μg/ml streptomycin. For cell culture, certain numbers of cells (2×10^5 to 1×10^6), either A431 or CHO-K1, were suspended in […] medium were placed in each well of a 96 well Corning Epic Biosensor microplate, and were cultured at 37° C. in air/5% CO2 for certain time until the cell density reached ˜90% and above (unless specified). The resulted cells were termed as “profilerating” cells. The “quiescent” cells were obtained by culturing the profilerating cells of desired confluencies with a medium containing no or little (˜0.1% fetal bovine serum (FBS)) for at least 16 hours.
# During the assays, the cells in 100 μl medium were subject to two 25 μl HBSS buffer containing 20 mM HEPES, pH 7.4, each separated by at least 15 minutes before 50 μl stimulus-containing solution was applied. During all these steps, a parallel angular interrogation system was used to monitor the real time kinetics of cellular responses. For compound effect studies, a modified protocol was used which starts with 50 μl medium, and subject to sequential treatment: 25 μl HBSS buffer twice (each separated by at least 15 minutes), 50 μl compound solution and finally 50 μl stimulus-containing solution.
compound,measurement,setting,value
dynamin inhibitory peptide [DIP],Effect of compound pre-treatment on saponin-induced response (loss of biomaterials),CHO cells [1],show no effect on a saponin-induced response
same,Effect of pre-treatment on EGF-induced P-DMR and N-DMR signals,"[2]; starved A431 cells, 8 nM EGF, 30-minute pretreatment, GH 0.5 ng/ml, PD98059 0.1 mM, PP1 1 μM, wortmannin 0.1 μM, DIP 50 μM","totally blocks the N-DMR signal, but slightly increases the P-DMR signal with much slower kinetics"
same,Increase of total P-DMR signal in presence vs absence of compound,"[2]; starved A431 cells, EGF, DIP 50 μM",50%
same,Effect of pre-incubation on NECA-induced response,"CHO cells [3]; DIP 50 μM, 45 minutes, NECA 10 μM, CHO",little effect on NECA-induced response
same,Effect of pre-incubation on clonidine-induced response,"CHO cells [3]; DIP 50 μM, 45 minutes, clonidine 10 μM, CHO",almost totally eliminates the clonidine-induced mass distribution response
same,Effect of pre-incubation on oxotremorine M-induced response,"CHO cells [3]; DIP 50 μM, 45 minutes, oxotremorine M 10 μM, CHO",almost totally eliminates the oxotremorine M-induced mass distribution responses in both cell lines
same,Effect of pre-incubation on NECA-induced response,"[4]; DIP 50 μM, 45 minutes, NECA 10 μM, M1 CHO",little effect on NECA-induced response
same,Effect of pre-incubation on clonidine-induced response,"[4]; DIP 50 μM, 45 minutes, clonidine 10 μM, M1 CHO",almost totally eliminates the clonidine-induced mass distribution response
same,Effect of pre-incubation on oxotremorine M-induced response,"[4]; DIP 50 μM, 45 minutes, oxotremorine M 10 μM, M1 CHO",almost totally eliminates the oxotremorine M-induced mass distribution responses in both cell lines
"SLIGLR [SLIGLR-amide, PAR2-AP]",Concentration required to induce a maximal response,[5]; [Ca2+]i,20 µM
same,Effect of preceding stimulation on trypsin-induced [Ca2+]i elevation,"[5]; interval 6 min, 200 nM trypsin",significantly attenuated but not completely eliminates the trypsin-induced [Ca^2+]i elevation
same,Maximal [Ca2+]i elevation,"[5]; quiescent A431, Fluo-3",64±3.7%
same,EC50,"[5]; quiescent A431, Fluo-3, read-out: EC50 of [Ca2+]i increase",2500 ± 300 nM
same,DMR signal after preceding stimulation with thrombin,[6],induced the DMR signal similar to that obtained without the preceding stimulation
same,Effect of preceding stimulation on trypsin-induced DMR signal,[7],significantly suppresses but not completely eliminates the trypsin-induced DMR signal
same,Class of optical signature (DMR) induced by agonist,[8],first class of optical signatures
C[N+](C)(C)CC#CCN1CCCC1=O [oxotremorine M],Agonist-induced optical response,"CHO cells [3]; ATP 100 μM, clonidine 10 μM, epinephrine 100 μM, oxotremorine M 10 μM",caused almost no cell response
same,Ligand-induced response in M1-CHO cells,"[4]; 10 μM, compared with CHO cells",significantly larger responses in M1-CHO cells
"COc1cc2ncnc(Nc3cccc(Cl)c3)c2cc1OC [AG1478, tyrphostin AG1478]",Effect of pretreatment on bradykinin-induced response,quiescent A431 cells; AG1478 10 μM,can only partially attenuate the response
same,Effect of pretreatment on carbachol- and clonidine-induced response,quiescent A431 cells; AG1478 10 μM,"totally abolished the N-DMR phase, and significantly reduced the kinetics of the P-DMR phase"
same,IC50,[2]; read-out: IC50 for suppression of EGF-induced response (amplitude of N-DMR signal),~194 nM
"C[N+](C)(C)CCOC(N)=O [Carbachol, carbachol]",GPCR agonist-induced DMR response curve,quiescent A431 cells,responses with almost identical features as those induced by low concentrations (2-8 nM) of EGF
Clc1cccc(Cl)c1N=C1NCCN1 [clonidine],GPCR agonist-induced DMR response curve,quiescent A431 cells,responses with almost identical features as those induced by low concentrations (2-8 nM) of EGF
same,Class of optical signature (DMR) induced by agonist,[8],did not exhibited any significant DMR signals
